Measurements reported in patent publication US8901111B2, “Aryl-substituted heterocyclic urea modulators of fatty acid amide hydrolase” (Janssen Pharmaceutica NV, priority 2009, dated 2014).

What was measured:
FAAH = molecular target: T1, FAAH (Homo sapiens, UniProt O00519); experiment: Assay Method 1: FAAH assay, 3H-anandamide hydrolysis in homogenate of cells transfected with human FAAH; assay type: biochemical; parameters: expressed in transfected cells; crude homogenate (T84 cell pellets named as alternative); details: cell homogenate, 3H-AEA 80 nM, 1 h at rt, average of results
T1 sequence (O00519 1-579): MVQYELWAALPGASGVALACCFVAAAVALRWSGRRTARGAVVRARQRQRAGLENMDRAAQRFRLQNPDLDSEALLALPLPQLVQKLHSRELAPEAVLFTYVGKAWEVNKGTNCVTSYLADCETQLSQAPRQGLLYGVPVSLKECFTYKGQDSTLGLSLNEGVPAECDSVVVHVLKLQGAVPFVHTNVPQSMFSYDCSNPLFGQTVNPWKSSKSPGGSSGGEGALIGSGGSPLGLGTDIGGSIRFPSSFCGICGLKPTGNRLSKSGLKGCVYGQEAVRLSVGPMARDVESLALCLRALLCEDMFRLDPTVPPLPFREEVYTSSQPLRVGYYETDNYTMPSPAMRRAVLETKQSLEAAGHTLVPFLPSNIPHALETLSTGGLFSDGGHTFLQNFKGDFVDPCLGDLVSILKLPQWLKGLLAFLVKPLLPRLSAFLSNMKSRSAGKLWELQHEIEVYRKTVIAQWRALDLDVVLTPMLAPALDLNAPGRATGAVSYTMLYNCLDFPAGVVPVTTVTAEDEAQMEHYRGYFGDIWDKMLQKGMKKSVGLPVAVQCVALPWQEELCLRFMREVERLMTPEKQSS
Description: A. Transfection of Cells with Human FAAH
(§1) A 10-cm tissue culture dish with a confluent monolayer of SK-N-MC cells was split 2 days (d) prior to transfection. Using sterile technique, the media was removed and the cells were detached from the dish by the addition of trypsin. One fifth of the cells were then placed onto a new 10-cm dish. Cells were grown in a 37° C. incubator with 5% CO2 in Minimal Essential Media Eagle with 10% Fetal Bovine Serum. After 2 d, cells were approximately 80% confluent. These cells were removed from the dish with trypsin and pelleted in a clinical centrifuge. The pellet was re-suspended in 400 μL complete media and transferred to an electroporation cuvette with a 0.4 cm gap between the electrodes. Supercoiled human FAAH cDNA (1 μg) was added to the cells and mixed. The voltage for the electroporation was set at 0.25 kV, and the capacitance was set at 960 After electroporation, the cells were diluted into complete media (10 mL) and plated onto four 10-cm dishes. Because of the variability in the efficiency of electroporation, four different concentrations of cells were plated. The ratios used were 1:20, 1:10, and 1:5, with the remainder of the cells being added to the fourth dish. The cells were allowed to recover for 24 h before adding the selection media (complete media with 600 μg/mL G418). After 10 d, dishes were analyzed for surviving colonies of cells. Dishes with well-isolated colonies were used. Cells from individual colonies were isolated and tested.
(§2) T84 frozen cell pellets or transfected SK-N-MC cells (contents of 1×15 cm culture dishes) were homogenized in 50 mL of FAAH assay buffer (125 mM Tris, 1 mM EDTA, 0.2% Glycerol, 0.02% Triton X-100, 0.4 mM Hepes, pH 9). The assay mixture consisted of 50 μL of the cell homogenate, 10 μL of the test compound, and 40 μL of anandamide [1-^3H-ethanolamine] (^3H-AEA, Perkin-Elmer, 10.3 Ci/mmol), which was added last, for a final tracer concentration of 80 nM. The reaction mixture was incubated at rt for 1 h. During the incubation, 96-well Multiscreen filter plates (catalog number MAFCNOB50; Millipore, Bedford, Mass., USA) were loaded with 25 μL of activated charcoal (Multiscreen column loader, catalog number MACL09625, Millipore) and washed once with 100 μL of MeOH. Also during the incubation, 96-well DYNEX MicroLite plates (catalog number NL510410) were loaded with 100 μL of MicroScint40 (catalog number 6013641, Packard Bioscience, Meriden, Conn., USA). After the 1 h incubation, 60 μL of the reaction mixture were transferred to the charcoal plates, which were then assembled on top of the DYNEX plates using Centrifuge Alignment Frames (catalog number MACF09604, Millipore). The unbound labeled ethanolamine was centrifuged through to the bottom plate (5 min at 2000 rpm), which was preloaded with the scintillant, as described above. The plates were sealed and left at rt for 1 h before counting on a Hewlett Packard TopCount.
(§3) Results for compounds tested in these assays are summarized in Table 1, as an average of results obtained. Compounds were tested in the free base or trifluoroacetic acid salt form. Compounds tested in the trifluoroacetic acid salt form are indicated as such by a “*” designation after the example number. Where activity is shown as greater than (>) a particular value, the value is the solubility limit of the compound in the assay medium or the highest concentration tested in the assay.

rat FAAH = molecular target: T2, rat FAAH (Rattus norvegicus, UniProt P97612); experiment: Assay Method 2: FAAH assay, 3H-anandamide hydrolysis in homogenate of cells transfected with rat FAAH; assay type: biochemical; details: cell homogenate, 3H-AEA 80 nM, 1 h at rt, average of results
T2 construct: expressed in transfected cells; crude homogenate
T2 sequence (P97612 1-579): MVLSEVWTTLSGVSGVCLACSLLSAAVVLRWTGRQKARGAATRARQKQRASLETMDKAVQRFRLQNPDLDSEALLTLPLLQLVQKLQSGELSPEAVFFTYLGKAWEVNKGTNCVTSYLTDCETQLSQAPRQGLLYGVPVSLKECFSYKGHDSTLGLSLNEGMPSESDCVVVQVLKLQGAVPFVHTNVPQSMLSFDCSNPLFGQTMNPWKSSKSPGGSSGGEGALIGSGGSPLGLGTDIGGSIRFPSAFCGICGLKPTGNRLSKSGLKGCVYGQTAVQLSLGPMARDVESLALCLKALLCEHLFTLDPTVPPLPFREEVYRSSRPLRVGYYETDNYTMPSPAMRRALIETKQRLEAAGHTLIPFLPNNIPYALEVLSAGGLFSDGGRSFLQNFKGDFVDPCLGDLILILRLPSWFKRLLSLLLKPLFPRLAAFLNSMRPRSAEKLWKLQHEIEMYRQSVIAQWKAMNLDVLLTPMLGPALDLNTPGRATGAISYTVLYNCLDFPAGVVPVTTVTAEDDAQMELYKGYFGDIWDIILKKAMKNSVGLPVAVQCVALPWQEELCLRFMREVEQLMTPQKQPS
Description: A. Transfection of Cells with Rat FAAH
as §1, with “rat” for “human”, “960 μF.” for “960”
as §2, §3

IC50 (FAAH) [nM] | IC50 (rat FAAH) [nM] | Structure (SMILES)
1400 | 300 | O=C(Nc1cccnc1)N1CC(COc2ccc(C(F)(F)F)c(Cl)c2)C1 [Example 10, 3-(3-Chloro-4-trifluoromethyl-phenoxymethyl)-azetidine-1-carboxylic acid pyridin-3-ylamide]
> 10000 | > 10000 | O=C(Nc1cccnc1)N1CCC(CCOc2ccccc2)C1 (stereo not shown) [Example 54, 3-(2-Phenoxy-ethyl)-pyrrolidine-1-carboxylic acid pyridin-3-ylamide]
370 | 1600 | C#Cc1cccc(OCC2CN(C(=O)Nc3cccnc3)C2)c1 [Example 11, 3-(3-Ethynyl-phenoxymethyl)-azetidine-1-carboxylic acid pyridin-3-ylamide]
3000 | 900 | O=C(Nc1cccnc1)N1CC(CCOc2cccc(OC(F)(F)F)c2)C1 [Example 31, 3-[2-(3-Trifluoromethoxy-phenoxy)-ethyl]-azetidine-1-carboxylic acid pyridin-3-ylamide]
6000 |  | O=C(Nc1cccnc1)N1CCC(CCOc2ccc(Cl)c(Cl)c2)C1 (stereo not shown) [Example 53, 3-[2-(3,4-Dichloro-phenoxy)-ethyl]-pyrrolidine-1-carboxylic acid pyridin-3-ylamide]
> 10000 |  | O=C(Nc1cccnc1)N1CC(CCOc2ccc(OC(F)(F)F)cc2)C1 [Example 30, 3-[2-(4-Trifluoromethoxy-phenoxy)-ethyl]-azetidine-1-carboxylic acid pyridin-3-ylamide]
1300 |  | O=C(Nc1cnccc1Cl)N1CCC(CCOc2ccc(OC(F)(F)F)cc2)C1 (stereo not shown) [Example 62, 3-[2-(4-Trifluoromethoxy-phenoxy)-ethyl]-pyrrolidine-1-carboxylic acid (4-chloro-pyridin-3-yl)-amide]

More lines, now with the values behind:

Structure (SMILES) | IC50 (FAAH) [nM] | IC50 (rat FAAH) [nM]
CCCCOc1cccc(OCCC2CN(C(=O)Nc3cccnc3)C2)c1 [Example 33, 3-[2-(3-Butoxy-phenoxy)-ethyl]-azetidine-1-carboxylic acid pyridin-3-ylamide] | 34 | 2000
O=C(Nc1cccnc1)N1CC(COc2ccc(Oc3ccccc3)cc2)C1 [Example 16, 3-(4-Phenoxy-phenoxymethyl)-azetidine-1-carboxylic acid pyridin-3-ylamide] | > 10000 | > 10000
O=C(Nc1cnccc1Cl)N1CCC(Cc2cccc(Oc3ccc(F)cc3)c2)C1 (stereo not shown) [Example 75, 3-[3-(4-Fluoro-phenoxy)-benzyl]-pyrrolidine-1-carboxylic acid (4-chloro-pyridin-3-yl)-amide] | 45 | 30
O=C(Nc1cccnc1)N1CC(COc2ccc3c(c2)CCCC3)C1 [Example 13, 3-(5,6,7,8-Tetrahydro-naphthalen-2-yloxymethyl)-azetidine-1-carboxylic acid pyridin-3-ylamide] | 2500 | 1700
O=C(Nc1cnc2[nH]ccc2c1)N1CC(CCOc2cccc(Oc3ccc(Cl)cc3)c2)C1 [Example 40, 3-{2-[3-(4-Chloro-phenoxy)-phenoxy]-ethyl}-azetidine-1-carboxylic acid (1H-pyrrolo[2,3-b]pyridin-5-yl)-amide] | 3 | 4
O=C(Nc1cccnc1)N1CCC(Cc2ccc3c(c2)OC(F)(F)O3)C1 (stereo not shown) [Example 71, 3-(2,2-Difluoro-benzo[1,3]dioxol-5-ylmethyl)-pyrrolidine-1-carboxylic acid pyridin-3-ylamide] | > 10000 | > 10000
O=C(Nc1cccnc1)N1CC(COc2ccc3ccccc3n2)C1 [Example 9, 3-(Quinolin-2-yloxymethyl)-azetidine-1-carboxylic acid pyridin-3-ylamide] | 1300 | 1300
CS(=O)(=O)c1ccc(Oc2cccc(OCC3CN(C(=O)Nc4cccnc4)C3)c2)cc1 [Example 24, 3-[3-(4-Methanesulfonyl-phenoxy)-phenoxymethyl]-azetidine-1-carboxylic acid pyridin-3-ylamide] | 58 | 380
O=C(Nc1cccnc1)N1CC(COc2ccc3cccnc3c2)C1 [Example 14, 3-(Quinolin-7-yloxymethyl)-azetidine-1-carboxylic acid pyridin-3-ylamide] | > 10000 | > 10000
O=C(Nc1cccnc1)N1CCC(CCc2ccc3c(c2)OC(F)(F)O3)C1 (stereo not shown) [Example 77, 3-[2-(2,2-Difluoro-benzo[1,3]dioxol-5-yl)-ethyl]-pyrrolidine-1-carboxylic acid pyridin-3-ylamide] | 5000 | 7000
O=C(Nc1cccc2nonc12)N1CCC(Cc2ccc3c(c2)OC(F)(F)O3)C1 (stereo not shown) [Example 73, N-2,1,3-Benzoxadiazol-4-yl-3-[(2,2-difluoro-1,3-benzodioxol-5-yl)methyl]pyrrolidine-1-carboxamide] | > 10000 | 
O=C(Nc1cccnc1)N1CC(CCOCc2ccccc2)C1 [Example 69, 3-(2-Benzyloxy-ethyl)-azetidine-1-carboxylic acid pyridin-3-ylamide] |  | > 10000
O=C(Nc1cnccc1Cl)N1CC(CCOCc2ccccc2)C1 [Example 70, 3-(2-Benzyloxy-ethyl)-azetidine-1-carboxylic acid (4-chloropyridin-3-yl)-amide] | 936 | 
